Experimental data: patent EP2861555B1, “PROCESS FOR DEPIGMENTING KERATIN MATERIALS USING NOVEL RESORCINOL-BASED COMPOUNDS” (L'Oréal, priority 2012, dated 2013)

Tests used:
[1] = tested on: coculture of keratinocytes and melanocytes; assay: Cytotoxicity on keratinocyte/melanocyte coculture, estimated by incorporation of leucine; type: cell-based
[2] = tested on: coculture of keratinocytes and melanocytes; assay: Inhibitory activity on melanin synthesis (constitutive melanogenesis), ratio of thiouracil to leucine incorporation; type: cell-based; settings: concentration for which 50% of the synthesis of the melanin is inhibited; thiouracil/leucine incorporation ratio relative to 100% for the control
Method: This test is carried out on a coculture of keratinocytes and melanocytes.
For the test compound, the following were determined: • the cytotoxicity, by estimating the incorporation of leucine, • the inhibitory activity on melanin synthesis, by estimating the ratio of the incorporation of thiouracil to the incorporation of leucine, relative to 100% for the control (the control corresponds to the test performed without test compound). The IC50 (concentration for which 50% of the synthesis of the melanin is inhibited) values were determined.
The test was also carried out with arbutin and kojic acid, which are known depigmenting compounds.

[3] = tested on: pigmented reconstructed epidermis; assay: Test on pigmented reconstructed epidermis samples, melanin quantified by image analysis; type: cell-based, human
Method: Compositions comprising 300 µM of compound 1 in DMSO were applied to samples of pigmented reconstructed epidermis (cf. EP 1 878 790). The control is DMSO. The melanin was quantified by image analysis on histological slices after staining with Fontana Masson dye. Each sample of coloured epidermis is photographed over its entire length using a camera connected to a microscope. The melanin is thresholded and the number of melanin pixels is measured in each field using automated image analysis software. A non-parametric statistical test is performed in order to determine the significance of the measurements (Mann-Whitney test).
The pigmented reconstructed epidermis standard study model was published by: Regnier M, Duval C, Galey JB, Philippe M, Lagrange A, Tuloup R, Schmidt R, Cellular and Molecular Biology, 1999, 45, 7, 969-980: "Keratinocyte-Melanocyte co-cultures and pigmented reconstructed human epidermis: models to study modulation of melanogenesis".

| Compound | IC50 [2] | Cytotoxicity on coculture [1] | depigmenting activity ([3]; 300 µM, pValue < 0.05 (Ttest 0.0006 in table), Mann-Whitney test) | Percentage (normalized) ([3]; topical application 300 uM in DMSO, melanin area normalized to DMSO 1/1000 control = 100) | Average area ([3]; topical application 300 uM in DMSO, melanin pixels by image analysis after Fontana Masson staining, DMSO 1/1000 control 368.5) |
| --- | --- | --- | --- | --- | --- |
| OC[C@H]1O[C@@H](Oc2ccc(O)cc2)[C@H](O)[C@@H](O)[C@@H]1O [Arbutin, reference compound] | > 500 µM | Non-cytotoxic |  |  |  |
| CCOC(=O)[C@H](Cc1ccccc1)NC(=O)C(CCO)Cc1ccc(O)cc1O (stereo partly shown) [Compound 1, ethyl N-[2-(2,4-dihydroxybenzyl)-4-hydroxybutanoyl]phenylalaninate] |  |  | Significant depigmenting activity | 71.7 | 264.2 |
| O=c1cc(CO)occ1O [Kojic acid, reference compound] | > 500 µM | 100 µM |  |  |  |

More lines, main results first:

| IC50 [2] | Compound | Cytotoxicity on coculture [1] | depigmenting activity ([3]; 300 µM, pValue < 0.05 (Ttest 0.0006 in table), Mann-Whitney test) | Percentage (normalized) ([3]; topical application 300 uM in DMSO, melanin area normalized to DMSO 1/1000 control = 100) | Average area ([3]; topical application 300 uM in DMSO, melanin pixels by image analysis after Fontana Masson staining, DMSO 1/1000 control 368.5) |
| --- | --- | --- | --- | --- | --- |
| 0.15 µM | CCOC(=O)C(Cc1ccccc1)NC(=O)C(CCO)Cc1ccc(O)cc1O (stereo not shown) | Non-cytotoxic |  |  |  |
| 100 µM | CCOC(=O)C(CC(C)C)NC(=O)C(CCO)Cc1ccc(O)cc1O (stereo not shown) | Non-cytotoxic |  |  |  |
| 25.2 µM | CCCCC(CC)CNC(=O)C(CCO)Cc1ccc(O)cc1O (stereo not shown) | 50 µM |  |  |  |
